From patent publication US10000790B2, “Materials and methods for rapid visualization of NAD(P)H” (THE FLORIDA INTERNATIONAL UNIVERSITY BOARD OF TRUSTEES, priority 2015, dated 2018)
pIC50: −log10 of the molar value.

Key:
GDH = details: reference 43; cited from earlier work
[1] = test system: glucose dehydrogenase (GDH); test: Inhibition of GDH-driven NADH production read out on the paper-based AuNP device; type: biochemical, Pseudomonas sp.
Experimental: (§1) To test the inhibitory effects of Hg(II), different concentrations of Hg(II) was incubated with 0.1 U GDH for 10 min in the presence of 10 mM of glucose and 0.1 M of phosphate buffer solution (pH 7.4) at 25 ° C., then 6 mM of NAD' was added to initiate the enzymatic reaction for […]. The kinetics of the reaction was monitored for the first 6 minutes in a microplate reader to calculate the enzyme's activity. 10 μL of the enzymatic reaction solution were added to 90 μL of 400 μM Au^3+-CTAB solution, and 25 μL of this solution was applied to the device test zone.
The colorimetric results were visualized after 4 minutes and evaluated for the inhibitory effects of these metals by measuring the decrease in the color intensity produced by the enzyme-substrate reaction. Ag(I) and Pb(II) were also tested as potential inhibitors in a similar fashion. Intensity analysis was performed using the ImageJ software.
Clearly, the GDH inhibition and AuNPs dissolution was increased with increasing Hg(II) concentration, with complete dissolution of AuNPs in the testing zone at a Hg(II) ion concentration of 100 μM (FIG. 6B, Hg(II)).
(§2) The resulting solution was then added into a 400 μM of Au^3+-CTAB solution, and 25 μL of this mixture were immediately applied to the testing zone. In the absence of Hg(II), GDH fully converted NAD^+ into NADH after 4 minutes, completely inhibiting AuNP dissolution and leaving the testing zone dark red (FIG. 17A). […] GDH-mediated production of NADH decreased in parallel with the increase of Hg(II) concentration, yielding a lighter readout as increased dissolution of AuNPs occurred (FIG. 17A). […] The color intensity was measured with the ImageJ software and the normalized intensity with different concentrations of Hg(II) was plotted (FIG. 17B). The kinetics of GDH in homogeneous solution was also monitored with or without Hg(II) ions (FIG. 18). Enzyme activity was calculated based on the kinetics of the enzymatic reaction and defined as 100% in the absence of Hg(II).

[2] = target: glucose dehydrogenase (GDH); test: GDH activity in homogeneous solution, absorbance change at 340 nm; type: biochemical, Pseudomonas sp.; details: Hg(II) 0-200 μM, activity 100% without Hg(II), read-out: IC50 for inhibition of GDH in homogeneous solution
Experimental: The absorbance change at 340 nm was monitored to calculate enzyme activity. Hg(II) concentrations being tested ranged from 0-200 μM. The enzyme's activity was defined as 100% in the absence of the Hg(II) ion, and as the Hg(II) concentration increased the enzyme's activity decreased.
as §1, with “10 μL of the enzymatic reaction solution were added to 90 μL of 400 μM Au^3+-CTAB solution, and 25 μL of this solution was applied to the device test zone.” left out
as §2, with “zone.” for “zone. In the absence of Hg(II), GDH fully converted NAD^+ into NADH after 4 minutes, completely inhibiting AuNP dissolution and leaving the testing zone dark red (FIG. 17A).”

Compound | inhibitory effect on GDH (literature) (GDH) | activity of GDH ([1]; 20 μM or higher of the ion, completely white readout) | pIC50 [2] | enzyme activity ([1]; 2.5 μM of the ion, small decrease of color intensity) | inhibition of AuNPs dissolution ([1]; 20 μM of the ion) | GDH activity ([1]; 20 μM of the ion, light pink color) | inhibition of GDH ([1]; 100 μM of the ion, completely white readout, complete dissolution of AuNPs) | pIC50 ([1]; 0.1 U GDH, 0-200 μM Hg(II), 400 μM Au3+-CTAB, 4-min reaction, ImageJ intensity) | inhibitory effect on GDH ([1]; 20 to 100 μM of the ion, no dissolution of AuNPs observed)
O=[N+]([O-])[O-].[Ag+] [Ag(I), silver nitrate] | strong inhibitors | completely inhibited | – | – | – | – | – | – | –
CC(=O)[O-].CC(=O)[O-].[Hg+2] [Hg(II), mercury(II) acetate] | strong inhibitors | – | 4.74 | slightly inhibited | approximately 30% | significantly inhibited | complete inhibition | 4.70 | –
lead(II) acetate trihydrate [Pb(II)] | no inhibitory effect | – | – | – | – | – | – | – | no inhibitory effect
